Source: ChEMBL document CHEMBL4411321, “Discovery of Potent, Selective, and Orally Bioavailable Estrogen-Related Receptor-γ Inverse Agonists To Restore the Sodium Iodide Symporter Function in Anaplastic Thyroid Cancer” (J Med Chem, 2019)
Calls of active or inactive are those of the source. No cut-off for these calls is given here.

What was measured:
[1] = Genotoxicity in Salmonella typhimurium at 2 mM by mini Ames test; format: toxicity; conditions: salmonella enterica subsp. enterica serovar typhimurium, 2000 µM
[2] = Potentiation of radio-iodine avidity in human CAL62 cells xenografted mouse assessed as increase in radio-iodine accumulation in tumor at 200 mg/kg, po dosed once daily for 6 days followed by 50 uCi 124-iodine dosing and measured after 2 hrs by PET/CT imaging analysis; format: ADME, organism-based, Neoplasm; conditions: in vivo
in vivo = conditions: Sprague-Dawley, rat, iv, 1 mg/kg
[3] = Metabolic stability in mouse liver microsomes assessed as compound remaining at 1 uM after 30 mins in presence of NADPH regeneration system by LC-MS/MS analysis; format: ADME, Microsome; conditions: read-out: Stability
CYP2C9 = CYP2C9 (Homo sapiens, UniProt P11712); experiment: Inhibition of CYP2C9 in human liver microsomes assessed as reduction in tolbutamide 4-hydroxylase activity at 10 uM preincubated for 5 mins followed by NADPH addition and measured after 15 mins by LC-MS/MS analysis relative to control; format: ADME; conditions: probe tolbutamide (4-hydroxylation)
[4] = AUC (0 to infinity) in Sprague-Dawley rat at 1 mg/kg, iv by LC-MS/MS analysis; format: ADME, organism-based; design: dose 1 mg/kg, time infinity, route intravenous; conditions: in vivo
[5] = biological target: T1, Estrogen-related receptor gamma (Homo sapiens) (UniProt P62508); experiment: Inverse agonist activity at ERRgamma in human BHT101 cells assessed as increase in TSHR mRNA expression at 6 to 12 uM by RT-PCR analysis; format: cell-based
T1 sequence (whole entry): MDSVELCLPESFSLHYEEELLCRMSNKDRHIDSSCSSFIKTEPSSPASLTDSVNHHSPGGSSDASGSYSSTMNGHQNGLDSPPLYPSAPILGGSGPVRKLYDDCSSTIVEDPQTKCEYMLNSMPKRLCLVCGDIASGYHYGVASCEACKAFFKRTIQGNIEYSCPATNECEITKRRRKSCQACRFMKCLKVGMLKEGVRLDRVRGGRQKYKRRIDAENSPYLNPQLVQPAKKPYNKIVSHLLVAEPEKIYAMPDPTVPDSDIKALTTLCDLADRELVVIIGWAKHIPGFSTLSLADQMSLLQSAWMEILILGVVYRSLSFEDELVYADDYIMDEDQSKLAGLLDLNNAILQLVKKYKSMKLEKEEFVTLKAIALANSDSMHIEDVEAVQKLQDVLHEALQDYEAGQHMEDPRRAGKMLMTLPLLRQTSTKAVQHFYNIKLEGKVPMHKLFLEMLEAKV

[6] = AUC (0 to infinity) in Sprague-Dawley rat at 9 to 10 mg/kg, po via gavage by LC-MS/MS analysis; format: ADME, organism-based; conditions: in vivo
BHT-101 = experiment: Reduction in colony formation in human BHT101 cells at 6 uM after 24 hrs by crystal violet-based assay; format: ADME, cell-based; conditions: bht-101, 24 h
[7] = Tmax in Sprague-Dawley rat at 9 to 10 mg/kg, po via gavage by LC-MS/MS analysis; format: ADME, organism-based; conditions: in vivo
CYP2D6 = CYP2D6 (Homo sapiens, UniProt P10635); experiment: Inhibition of CYP2D6 in human liver microsomes assessed as reduction in dextromethorphan O-demethylase activity at 10 uM preincubated for 5 mins followed by NADPH addition and measured after 15 mins by LC-MS/MS analysis relative to control; format: ADME; conditions: probe dextromethorphan (O-demethylation)
[8] = biological target: T1, Estrogen-related receptor gamma (Homo sapiens); experiment: Inverse agonist activity at ERRgamma in human BHT101 cells assessed as restoration of sodium iodide symporter function by measuring increase in radioiodide avidity at 6 to 12 uM in presence of NIS inhibitor KClO4 after 24 hrs by gamma counting analysis based [125-I]-iodide uptake assay; format: cell-based
[9] = Metabolic stability in rat liver microsomes assessed as compound remaining at 1 uM after 30 mins in presence of NADPH regeneration system by LC-MS/MS analysis; format: ADME, Microsome; conditions: read-out: Stability
[10] = biological target: T1, Estrogen-related receptor gamma (Homo sapiens); experiment: Inverse agonist activity at ERRgamma in human CAL62 cells assessed as increase in TG mRNA expression at 6 to 12 uM by RT-PCR analysis; format: cell-based
[11] = biological target: T1, Estrogen-related receptor gamma (Homo sapiens); experiment: Inverse agonist activity at ERRgamma in human CAL62 cells assessed as increase in TPO mRNA expression at 6 to 12 uM by RT-PCR analysis; format: cell-based
[12] = Metabolic stability in human liver microsomes assessed as compound remaining at 1 uM after 30 mins in presence of NADPH regeneration system by LC-MS/MS analysis; format: ADME, Microsome; conditions: read-out: Stability
[13] = biological target: T1, Estrogen-related receptor gamma (Homo sapiens); experiment: Inverse agonist activity at ERRgamma in human BHT101 cells assessed as increase in TG mRNA expression at 6 to 12 uM by RT-PCR analysis; format: cell-based
[14] = biological target: T1, Estrogen-related receptor gamma (Homo sapiens); experiment: Inverse agonist activity at ERRgamma in human BHT101 cells assessed as increase in NIS mRNA expression at 6 to 12 uM by RT-PCR analysis; format: cell-based
CYP2C19 = CYP2C19 (Homo sapiens, UniProt P33261); experiment: Inhibition of CYP2C19 in human liver microsomes assessed as reduction in S-mephenytoin 4-hydroxylase activity at 10 uM preincubated for 5 mins followed by NADPH addition and measured after 15 mins by LC-MS/MS analysis relative to control; format: ADME; conditions: probe S-mephenytoin (4-hydroxylation)
[15] = biological target: T1, Estrogen-related receptor gamma (Homo sapiens); experiment: Inverse agonist activity at ERRgamma in human CAL62 cells assessed as increase in TSHR mRNA expression at 6 to 12 uM by RT-PCR analysis; format: cell-based
[16] = biological target: T1, Estrogen-related receptor gamma (Homo sapiens); experiment: Inverse agonist activity at ERRgamma in human CAL62 cells assessed as restoration of sodium iodide symporter function by measuring increase in radioiodide avidity at 6 to 12 uM after 24 hrs by gamma counting analysis based [125-I]-iodide uptake assay; format: cell-based
[17] = biological target: T1, Estrogen-related receptor gamma (Homo sapiens); experiment: Inverse agonist activity at ERRgamma in human CAL62 cells assessed as restoration of sodium iodide symporter function by measuring increase in radioiodide avidity at 6 to 12 uM in presence of NIS inhibitor KClO4 after 24 hrs by gamma counting analysis based [125-I]-iodide uptake assay; format: cell-based
[18] = biological target: T1, Estrogen-related receptor gamma (Homo sapiens); experiment: Inverse agonist activity at ERRgamma in human CAL62 cells assessed as increase in NIS mRNA expression at 6 to 12 uM by RT-PCR analysis; format: cell-based
[19] = Effective permeability of the compound at 10 uM after 5 hrs by PAMPA; format: ADME; conditions: read-out: Peff
CAL-62 = experiment: Reduction in colony formation in human CAL62 cells at 6 uM after 24 hrs by crystal violet-based assay; format: ADME, cell-based; conditions: cal-62, 24 h
CYP3A4 = CYP3A4 (Homo sapiens, UniProt P08684); experiment: Inhibition of CYP3A4 in human liver microsomes assessed as reduction in midazolam 1-hydroxylase activity at 10 uM preincubated for 5 mins followed by NADPH addition and measured after 15 mins by LC-MS/MS analysis relative to control; format: ADME; conditions: probe midazolam (1-hydroxylation)
[20] = biological target: T1, Estrogen-related receptor gamma (Homo sapiens); experiment: Inverse agonist activity at ERRgamma in human BHT101 cells assessed as restoration of sodium iodide symporter function by measuring increase in radioiodide avidity at 6 to 12 uM after 24 hrs by gamma counting analysis based [125-I]-iodide uptake assay; format: cell-based
[21] = Metabolic stability in dog liver microsomes assessed as compound remaining at 1 uM after 30 mins in presence of NADPH regeneration system by LC-MS/MS analysis; format: ADME, Canis lupus familiaris, Microsome; conditions: read-out: Stability
CYP1A2 = biological target: T2, CYP1A2 (Homo sapiens, UniProt P05177); experiment: Inhibition of CYP1A2 in human liver microsomes assessed as reduction in phenacetin O-deethylase activity at 10 uM preincubated for 5 mins followed by NADPH addition and measured after 15 mins by LC-MS/MS analysis relative to control; format: ADME; conditions: probe phenacetin (O-deethylation)
T2 sequence (P05177 whole entry): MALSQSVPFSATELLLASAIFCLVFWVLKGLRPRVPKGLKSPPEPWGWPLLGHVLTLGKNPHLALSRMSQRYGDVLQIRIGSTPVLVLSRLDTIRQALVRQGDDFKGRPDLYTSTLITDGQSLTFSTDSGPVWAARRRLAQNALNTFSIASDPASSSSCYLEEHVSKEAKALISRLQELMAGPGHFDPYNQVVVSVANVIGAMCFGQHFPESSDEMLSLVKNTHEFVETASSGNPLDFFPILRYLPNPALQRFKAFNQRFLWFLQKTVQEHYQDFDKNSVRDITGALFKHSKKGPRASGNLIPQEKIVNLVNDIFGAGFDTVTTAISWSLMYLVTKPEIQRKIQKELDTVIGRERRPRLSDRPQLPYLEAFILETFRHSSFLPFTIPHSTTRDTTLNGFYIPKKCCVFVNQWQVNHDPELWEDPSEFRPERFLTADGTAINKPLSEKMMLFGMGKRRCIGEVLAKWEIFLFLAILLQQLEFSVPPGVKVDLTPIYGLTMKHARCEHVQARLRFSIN

[22] = biological target: T1, Estrogen-related receptor gamma (Homo sapiens); experiment: Inverse agonist activity at ERRgamma in human BHT101 cells assessed as increase in TPO mRNA expression at 6 to 12 uM by RT-PCR analysis; format: cell-based

CYP2C9, sequence (P11712 whole entry): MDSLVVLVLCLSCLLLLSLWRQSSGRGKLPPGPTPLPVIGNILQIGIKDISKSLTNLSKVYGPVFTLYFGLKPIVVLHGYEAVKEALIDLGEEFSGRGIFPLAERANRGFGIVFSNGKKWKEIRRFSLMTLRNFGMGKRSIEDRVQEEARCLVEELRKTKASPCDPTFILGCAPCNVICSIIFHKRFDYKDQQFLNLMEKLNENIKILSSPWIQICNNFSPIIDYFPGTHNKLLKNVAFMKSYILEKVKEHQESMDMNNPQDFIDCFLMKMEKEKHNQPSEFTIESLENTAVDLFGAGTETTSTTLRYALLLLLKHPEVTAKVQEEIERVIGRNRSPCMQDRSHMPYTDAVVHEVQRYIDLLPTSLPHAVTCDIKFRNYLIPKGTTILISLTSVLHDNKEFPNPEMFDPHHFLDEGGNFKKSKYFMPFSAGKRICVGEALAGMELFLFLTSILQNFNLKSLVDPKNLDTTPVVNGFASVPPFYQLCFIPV
CYP3A4, sequence (P08684 whole entry): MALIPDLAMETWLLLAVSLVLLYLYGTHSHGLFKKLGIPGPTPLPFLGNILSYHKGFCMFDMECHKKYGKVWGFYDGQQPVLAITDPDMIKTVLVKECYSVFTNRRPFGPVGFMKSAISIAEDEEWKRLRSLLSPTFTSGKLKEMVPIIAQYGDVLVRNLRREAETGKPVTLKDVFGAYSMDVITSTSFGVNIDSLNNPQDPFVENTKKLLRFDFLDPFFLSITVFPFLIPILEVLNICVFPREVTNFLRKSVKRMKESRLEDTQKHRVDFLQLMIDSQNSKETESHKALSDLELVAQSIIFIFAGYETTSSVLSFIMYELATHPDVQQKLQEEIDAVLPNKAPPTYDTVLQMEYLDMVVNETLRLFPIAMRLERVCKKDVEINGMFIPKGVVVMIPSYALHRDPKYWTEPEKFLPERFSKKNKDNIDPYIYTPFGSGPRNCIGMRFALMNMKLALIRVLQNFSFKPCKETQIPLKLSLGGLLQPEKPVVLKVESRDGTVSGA
CYP2D6, sequence (P10635 whole entry): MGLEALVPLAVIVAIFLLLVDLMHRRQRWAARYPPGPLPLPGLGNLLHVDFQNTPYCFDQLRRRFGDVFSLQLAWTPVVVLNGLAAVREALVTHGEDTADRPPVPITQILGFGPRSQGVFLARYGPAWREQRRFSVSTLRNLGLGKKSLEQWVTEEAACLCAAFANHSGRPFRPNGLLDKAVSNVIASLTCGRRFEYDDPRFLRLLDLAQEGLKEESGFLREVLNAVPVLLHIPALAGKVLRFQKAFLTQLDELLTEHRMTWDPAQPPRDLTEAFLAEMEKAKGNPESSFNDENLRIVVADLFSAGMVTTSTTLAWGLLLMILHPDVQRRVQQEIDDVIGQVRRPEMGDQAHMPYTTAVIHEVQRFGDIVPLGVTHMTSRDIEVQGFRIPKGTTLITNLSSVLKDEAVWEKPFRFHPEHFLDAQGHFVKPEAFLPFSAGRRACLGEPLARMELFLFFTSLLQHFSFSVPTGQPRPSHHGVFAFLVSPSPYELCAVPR
CYP2C19, sequence (P33261 whole entry): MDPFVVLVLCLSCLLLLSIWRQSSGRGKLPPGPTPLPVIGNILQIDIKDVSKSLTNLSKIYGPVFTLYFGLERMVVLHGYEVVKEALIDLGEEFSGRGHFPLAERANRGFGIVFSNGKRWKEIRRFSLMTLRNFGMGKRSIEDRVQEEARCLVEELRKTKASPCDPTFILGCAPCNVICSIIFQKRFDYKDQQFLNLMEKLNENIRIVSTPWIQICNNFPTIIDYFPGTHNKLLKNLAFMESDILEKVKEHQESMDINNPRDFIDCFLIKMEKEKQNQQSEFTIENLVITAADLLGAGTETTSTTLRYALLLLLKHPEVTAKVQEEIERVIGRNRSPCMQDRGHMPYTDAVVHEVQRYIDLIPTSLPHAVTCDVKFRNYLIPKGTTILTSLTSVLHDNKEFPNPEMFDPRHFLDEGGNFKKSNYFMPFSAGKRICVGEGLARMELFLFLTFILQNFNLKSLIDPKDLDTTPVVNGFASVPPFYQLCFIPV

## CC(C)N1CCN(c2ccc(/C(=C(/CCCO)c3ccccc3)c3cccc(O)c3)cc2)CC1.Cl.Cl
[1]
  Activity: Non-Toxic
[2]
  Activity: Active
In vivo
  AUC: 0.99 µM·h
[3]
  remaining at 0.5 h, 1 µM: 26.9%
CYP2C9
  inhibition at 0.25 h, 10 µM: 24.1%
[4]
  AUC(0-inf): 1 µM·h
[5]
  Activity: Active
[6]
  AUC(0-inf): 4.71 µM·h
BHT-101
  Activity: Non-Toxic
[7]
  Tmax: 1.7 h
CYP2D6
  inhibition at 0.25 h, 10 µM: 34%
[8]
  Activity: inactive
[9]
  remaining at 0.5 h, 1 µM: 54.9%
[10]
  Activity: Dose-dependent effect
[11]
  Activity: Dose-dependent effect
[12]
  remaining at 0.5 h, 1 µM: 65.4%
[13]
  Activity: Active
[14]
  Activity: Active
CYP2C19
  inhibition at 0.25 h, 10 µM: 0%
[15]
  Activity: Dose-dependent effect
[16]
  Activity: Active
[17]
  Activity: inactive
[18]
  Activity: Dose-dependent effect
[19]
  Papp at 5 h, 10 µM: 1.29 ×10⁻⁶ cm/s
CAL-62
  Activity: Non-Toxic
CYP3A4
  inhibition at 0.25 h, 10 µM: 53.3%
[20]
  Activity: Active
[21]
  remaining at 0.5 h, 1 µM: 61.2%
CYP1A2
  inhibition at 0.25 h, 10 µM: 0%
[22]
  Activity: Active
